According to the NIST ThermoML archive (doi:10.1021/acs.jced.7b00429):

Assay: xn = mol fraction of the nth substance listed
Details: 100 kPa, Liquid; for viscosity: Falling or rolling sphere viscometry; for speed of sound: Frequency=3 MHz, Single path-length method; for mass density: Vibrating tube method

CCn1cc[n+](C)c1.O=S(=O)([O-])C(F)(F)F [1-ethyl-3-methylimidazolium trifluoromethanesulfonate] + CC#N
Details | mass density [kg/m3] | speed of sound [m/s] | viscosity [mPa·s]
298.15 K, x1 = 0.1026 | 964.8 | 1309.2 | 0.85
298.15 K, x1 = 0.2053 | 1080.98 | 1337.4 | 1.88
298.15 K, x1 = 0.3044 | 1158.48 | 1360.9 | 2.99
298.15 K, x1 = 0.3948 | 1210.19 | 1377.9 | 4.51
298.15 K, x1 = 0.498 | 1256.19 | 1394.4 | 7.44
298.15 K, x1 = 0.595 | 1289.82 | 1408 | 10.9
298.15 K, x1 = 0.6936 | 1317.8 | 1418.6 | 15.92
298.15 K, x1 = 0.801 | 1342.54 | 1427.1 | 24.05
298.15 K, x1 = 0.9005 | 1362.36 | 1432.6 | 33.72
298.15 K, x1 = 1 | 1379.91 | 1436 | 45.67
303.15 K, x1 = 0.1026 | 959.72 | 1292 | 0.8
303.15 K, x1 = 0.2053 | 1076.24 | 1321.9 | 1.82
303.15 K, x1 = 0.3044 | 1153.77 | 1346.7 | 2.74
303.15 K, x1 = 0.3948 | 1205.75 | 1364.5 | 4.13
303.15 K, x1 = 0.498 | 1251.68 | 1381.5 | 6.64
303.15 K, x1 = 0.595 | 1285.38 | 1395.5 | 9.46
303.15 K, x1 = 0.6936 | 1313.46 | 1406.6 | 13.8
303.15 K, x1 = 0.801 | 1338.3 | 1415.2 | 20.32
303.15 K, x1 = 0.9005 | 1358.19 | 1421.3 | 27.94
303.15 K, x1 = 1 | 1375.71 | 1425.4 | 38.31
308.15 K, x1 = 0.1026 | 954.64 | 1274.9 | 0.75
308.15 K, x1 = 0.2053 | 1071.2 | 1306.5 | 1.65
308.15 K, x1 = 0.3044 | 1149.07 | 1332.5 | 2.52
308.15 K, x1 = 0.3948 | 1200.93 | 1351.3 | 3.76
308.15 K, x1 = 0.498 | 1247.19 | 1368.7 | 5.95
308.15 K, x1 = 0.595 | 1280.97 | 1383.2 | 8.41
308.15 K, x1 = 0.6936 | 1309.13 | 1394.7 | 12.08
308.15 K, x1 = 0.801 | 1334.18 | 1403.4 | 17.54
308.15 K, x1 = 0.9005 | 1354.05 | 1409.7 | 23.87
308.15 K, x1 = 1 | 1371.51 | 1414.3 | 32.38
313.15 K, x1 = 0.1026 | 949.54 | 1257.9 | 0.72
313.15 K, x1 = 0.2053 | 1066.32 | 1291.1 | 1.54
313.15 K, x1 = 0.3044 | 1144.37 | 1318.3 | 2.34
313.15 K, x1 = 0.3948 | 1196.39 | 1338.2 | 3.46
313.15 K, x1 = 0.498 | 1242.71 | 1356 | 5.37
313.15 K, x1 = 0.595 | 1276.68 | 1371.1 | 7.51
313.15 K, x1 = 0.6936 | 1304.82 | 1382.9 | 10.66
313.15 K, x1 = 0.801 | 1330.05 | 1391.6 | 15.27
313.15 K, x1 = 0.9005 | 1349.89 | 1398.1 | 20.58
313.15 K, x1 = 1 | 1367.36 | 1403 | 27.68
318.15 K, x1 = 0.1026 | 944.58 | 1241 | 0.68
318.15 K, x1 = 0.2053 | 1061.52 | 1275.8 | 1.42
318.15 K, x1 = 0.3044 | 1139.57 | 1304.3 | 2.16
318.15 K, x1 = 0.3948 | 1191.77 | 1325.1 | 3.17
318.15 K, x1 = 0.498 | 1238.2 | 1343.4 | 4.87
318.15 K, x1 = 0.595 | 1272.32 | 1359 | 6.75
318.15 K, x1 = 0.6936 | 1300.45 | 1371.3 | 9.46
318.15 K, x1 = 0.801 | 1325.89 | 1380.2 | 13.39
318.15 K, x1 = 0.9005 | 1345.74 | 1387.1 | 17.89
318.15 K, x1 = 1 | 1363.21 | 1392.7 | 23.86
323.15 K, x1 = 0.1026 | 939.47 | 1224.1 | 0.65
323.15 K, x1 = 0.2053 | 1056.45 | 1260.7 | 1.38
323.15 K, x1 = 0.3044 | 1134.77 | 1290.5 | 2.01
323.15 K, x1 = 0.3948 | 1187.31 | 1312.2 | 2.91
323.15 K, x1 = 0.498 | 1233.78 | 1330.9 | 4.43
323.15 K, x1 = 0.595 | 1267.96 | 1347.1 | 5.96
323.15 K, x1 = 0.6936 | 1296.17 | 1359.7 | 8.27
323.15 K, x1 = 0.801 | 1321.8 | 1368.6 | 11.66
323.15 K, x1 = 0.9005 | 1341.58 | 1375.7 | 15.49
323.15 K, x1 = 1 | 1359.07 | 1381.7 | 20.75

CCn1cc[n+](C)c1.O=S(=O)([O-])C(F)(F)F [1-ethyl-3-methylimidazolium trifluoromethanesulfonate] + C[S+](C)[O-]
Details | mass density [kg/m3] | speed of sound [m/s] | viscosity [mPa·s]
298.15 K, x1 = 0.1068 | 1168.75 | 1488 | 3.65
298.15 K, x1 = 0.2015 | 1216.25 | 1477.1 | 5.35
298.15 K, x1 = 0.3077 | 1256.63 | 1468.6 | 7.89
298.15 K, x1 = 0.4023 | 1284.76 | 1462.5 | 11.82
298.15 K, x1 = 0.4933 | 1306.53 | 1456.5 | 16.26
298.15 K, x1 = 0.6022 | 1328.03 | 1453 | 21.05
298.15 K, x1 = 0.6993 | 1344 | 1449.9 | 26.12
298.15 K, x1 = 0.7929 | 1357.15 | 1445.6 | 31.96
298.15 K, x1 = 0.9008 | 1370.28 | 1441.2 | 38.88
298.15 K, x1 = 1 | 1379.91 | 1436 | 45.67
303.15 K, x1 = 0.1068 | 1164 | 1472.7 | 3.26
303.15 K, x1 = 0.2015 | 1211.78 | 1462.7 | 4.72
303.15 K, x1 = 0.3077 | 1252.35 | 1454.9 | 6.9
303.15 K, x1 = 0.4023 | 1280.52 | 1449.4 | 10.2
303.15 K, x1 = 0.4933 | 1302.34 | 1443.8 | 13.93
303.15 K, x1 = 0.6022 | 1323.93 | 1440.6 | 17.95
303.15 K, x1 = 0.6993 | 1339.92 | 1437.8 | 22.18
303.15 K, x1 = 0.7929 | 1353.08 | 1433.9 | 27.03
303.15 K, x1 = 0.9008 | 1366.19 | 1430 | 32.74
303.15 K, x1 = 1 | 1375.71 | 1425.4 | 38.31
308.15 K, x1 = 0.1068 | 1159.28 | 1457.5 | 2.94
308.15 K, x1 = 0.2015 | 1207.5 | 1448.3 | 4.2
308.15 K, x1 = 0.3077 | 1248.17 | 1441.2 | 6.08
308.15 K, x1 = 0.4023 | 1276.4 | 1436.4 | 8.91
308.15 K, x1 = 0.4933 | 1298.26 | 1431.3 | 12.06
308.15 K, x1 = 0.6022 | 1319.96 | 1428.4 | 15.48
308.15 K, x1 = 0.6993 | 1335.83 | 1425.8 | 19.05
308.15 K, x1 = 0.7929 | 1349.06 | 1422.3 | 23.08
308.15 K, x1 = 0.9008 | 1362.09 | 1418.7 | 27.81
308.15 K, x1 = 1 | 1371.51 | 1414.3 | 32.38
313.15 K, x1 = 0.1068 | 1154.49 | 1442.4 | 2.66
313.15 K, x1 = 0.2015 | 1203.23 | 1434 | 3.76
313.15 K, x1 = 0.3077 | 1243.91 | 1427.7 | 5.42
313.15 K, x1 = 0.4023 | 1272.21 | 1423.5 | 7.85
313.15 K, x1 = 0.4933 | 1294.19 | 1418.8 | 10.52
313.15 K, x1 = 0.6022 | 1315.98 | 1416.5 | 13.47
313.15 K, x1 = 0.6993 | 1331.89 | 1414 | 16.52
313.15 K, x1 = 0.7929 | 1345.04 | 1410.8 | 19.91
313.15 K, x1 = 0.9008 | 1358.06 | 1407.4 | 23.88
313.15 K, x1 = 1 | 1367.36 | 1403 | 27.68
318.15 K, x1 = 0.1068 | 1149.74 | 1425.5 | 2.42
318.15 K, x1 = 0.2015 | 1198.95 | 1419.8 | 3.39
318.15 K, x1 = 0.3077 | 1239.74 | 1414.3 | 4.85
318.15 K, x1 = 0.4023 | 1268.06 | 1410.8 | 6.96
318.15 K, x1 = 0.4933 | 1290.23 | 1406.5 | 9.26
318.15 K, x1 = 0.6022 | 1312.02 | 1404.5 | 11.82
318.15 K, x1 = 0.6993 | 1327.93 | 1401.9 | 14.45
318.15 K, x1 = 0.7929 | 1341 | 1399.5 | 17.32
318.15 K, x1 = 0.9008 | 1353.95 | 1396.5 | 20.68
318.15 K, x1 = 1 | 1363.21 | 1392.7 | 23.86
323.15 K, x1 = 0.1068 | 1144.99 | 1410.4 | 2.22
323.15 K, x1 = 0.2015 | 1194.68 | 1405.7 | 3.08
323.15 K, x1 = 0.3077 | 1235.66 | 1401 | 4.37
323.15 K, x1 = 0.4023 | 1263.96 | 1398.1 | 6.22
323.15 K, x1 = 0.4933 | 1286.19 | 1394.3 | 8.23
323.15 K, x1 = 0.6022 | 1307.97 | 1392.7 | 10.45
323.15 K, x1 = 0.6993 | 1323.95 | 1390.7 | 12.72
323.15 K, x1 = 0.7929 | 1337.02 | 1388.2 | 15.19
323.15 K, x1 = 0.9008 | 1349.9 | 1385.5 | 18.05
323.15 K, x1 = 1 | 1359.07 | 1381.7 | 20.75
